Laboratory results published in patent US8299048B2, “Hexahydrocyclopentyl[f]indazole sulfonamides and derivatives thereof as selective glucocorticoid receptor modulators” (Merck Sharp & Dohme Corp., priority 2008, dated 2012).

The compounds below were run against T1, glucocorticoid receptor (Homo sapiens, UniProt P04150) (assay: Ligand binding assay (GR BIND)).
T1 construct: endogenous in cells
T1 sequence (P04150 1-777): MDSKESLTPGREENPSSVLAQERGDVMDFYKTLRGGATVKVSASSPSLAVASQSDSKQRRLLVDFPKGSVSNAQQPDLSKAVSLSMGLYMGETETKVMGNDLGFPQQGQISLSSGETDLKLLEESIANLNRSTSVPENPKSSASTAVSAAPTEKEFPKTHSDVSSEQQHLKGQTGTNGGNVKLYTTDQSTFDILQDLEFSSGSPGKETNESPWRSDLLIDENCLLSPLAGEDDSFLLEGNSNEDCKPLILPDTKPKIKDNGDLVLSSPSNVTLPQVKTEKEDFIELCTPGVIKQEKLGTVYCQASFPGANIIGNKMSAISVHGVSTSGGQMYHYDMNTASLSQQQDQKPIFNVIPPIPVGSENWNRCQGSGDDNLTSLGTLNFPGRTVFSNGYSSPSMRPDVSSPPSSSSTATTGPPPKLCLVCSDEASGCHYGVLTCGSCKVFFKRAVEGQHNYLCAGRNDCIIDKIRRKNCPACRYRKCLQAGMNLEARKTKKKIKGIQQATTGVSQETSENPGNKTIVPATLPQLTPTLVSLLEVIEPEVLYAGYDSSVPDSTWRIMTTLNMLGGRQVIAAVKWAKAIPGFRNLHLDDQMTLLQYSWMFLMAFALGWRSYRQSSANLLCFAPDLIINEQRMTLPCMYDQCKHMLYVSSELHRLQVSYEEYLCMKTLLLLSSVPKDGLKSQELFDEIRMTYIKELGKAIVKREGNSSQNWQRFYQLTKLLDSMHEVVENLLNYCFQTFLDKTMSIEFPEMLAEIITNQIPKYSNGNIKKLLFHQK
Method in brief: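 Displacement of tritiated dexamethasone (6 nM trace solution) from receptor in cell supernatant was measured after overnight incubation at 4 °C in molybdate-containing TEGM, pH 7.2, 2% ethanol. Hydroxylapatite pulled down the receptor–ligand complex for filter washing and scintillation counting, with dexamethasone as reference.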

| Ki | Compound |
| --- | --- |
| 0.8 nM | C[C@]12Cc3cnn(-c4ccc(F)cc4)c3C=C1CC[C@@H]2CN(CC(O)C(F)F)S(=O)(=O)CC(F)(F)F (stereo partly drawn) [Example 133, N-(3,3-difluoro-2-hydroxypropyl)-2,2,2-trifluoro-N-{[(4αR,5S)-1-(4-fluorophenyl)-4α-methyl-1,4,4α,5,6,7-hexahydrocyclopenta[f]indazol-5-yl]methyl}ethanesulfonamide] |
| 1.8 nM | C[C@]12Cc3cnn(-c4ccc(F)cc4)c3C=C1CC[C@@H]2CN(CC(OS(=O)(=O)CC(F)(F)F)C(F)F)S(=O)(=O)CC(F)(F)F (stereo partly drawn) [Example 134, 2,2-difluoro-1-({{[(4αR,5S)-1-(4-fluorophenyl)-4α-methyl-1,4,4α,5,6,7-hexahydrocyclopenta[f]indazol-5-yl]methyl}[(2,2,2-trifluoroethyl)sulfonyl]amino}methyl)ethyl 2,2,2-trifluoroethanesulfonate] |
| 2.9 nM | C[C@]12Cc3cnn(-c4ccc(F)cc4)c3C=C1CC[C@@H]2CN(CC1(O)CC1)S(=O)(=O)CC(F)(F)F [Example 135, 2,2,2-trifluoro-N-{[(4αR,5S)-1-(4-fluorophenyl)-4α-methyl-1,4,4α,5,6,7-hexahydrocyclopenta[f]indazol-5-yl]methyl}-N-[(1-hydroxycyclopropyl)methyl]ethanesulfonamide] |
| 2.5 nM | C[C@]12Cc3cnn(-c4ccc(F)cc4)c3C=C1CC[C@@H]2CN(CC1(OS(=O)(=O)CC(F)(F)F)CC1)S(=O)(=O)CC(F)(F)F [Example 136, 1-({{[(4αR,5S)-1-(4-fluorophenyl)-4α-methyl-1,4,4α,5,6,7-hexahydrocyclopenta[f]indazol-5-yl]methyl}[(2,2,2-trifluoroethyl)sulfonyl]amino}methyl)cyclopropyl 2,2,2-trifluoroethanesulfonate] |
| 0.9 nM | C[C@]12Cc3cnn(-c4ccccc4)c3C=C1CC[C@@H]2CN(CCc1ccccc1F)S(=O)(=O)CC(F)(F)F [Example 137, 2,2,2-trifluoro-N-[2-(2-fluorophenyl)ethyl]-N-{[(4αR,5S)-4α-methyl-1-phenyl-1,4,4α,5,6,7-hexahydrocyclopenta[f]indazol-5-yl]methyl}ethanesulfonamide] |
| 1.2 nM | C[C@]12Cc3cnn(-c4ccccc4)c3C=C1CC[C@@H]2CN(CCc1ccccn1)S(=O)(=O)CC(F)(F)F [Example 138, 2,2,2-trifluoro-N-{[(4αR,5S)-4α-methyl-1-phenyl-1,4,4α,5,6,7-hexahydrocyclopenta[f]indazol-5-yl]methyl}-N-(2-pyridin-2-ylethyl)ethanesulfonamide] |
| 1.5 nM | COc1ccccc1CCN(C[C@H]1CCC2=Cc3c(cnn3-c3ccccc3)C[C@@]21C)S(=O)(=O)CC(F)(F)F [Example 139, 2,2,2-trifluoro-N-[2-(2-methoxyphenyl)ethyl]-N-{[(4αR,5S)-4α-methyl-1-phenyl-1,4,4α,5,6,7-hexahydrocyclopenta[f]indazol-5-yl]methyl}ethanesulfonamide] |
| 4.1 nM | C[C@]12Cc3cnn(-c4ccccc4)c3C=C1CC[C@@H]2CN(CCc1ccccn1)S(=O)(=O)Cc1cccnc1 [Example 140, N-{[(4αR,5S)-4α-methyl-1-phenyl-1,4,4α,5,6,7-hexahydrocyclopenta[f]indazol-5-yl]methyl}-1-pyridin-3-yl-N-(2-pyridin-2-ylethyl)methanesulfonamide] |
| 1.1 nM | C[C@]12Cc3cnn(-c4ccccc4)c3C=C1CC[C@@H]2CN(CCc1ccccc1O)S(=O)(=O)Cc1cccnc1 [Example 141, N-[2-(2-hydroxyphenyl)ethyl]-N-{[(4αR,5S)-4α-methyl-1-phenyl-1,4,4α,5,6,7-hexahydrocyclopenta[f]indazol-5-yl]methyl}-1-pyridin-3-ylmethanesulfonamide] |
| 0.9 nM | C[C@]12Cc3cnn(-c4ccc(F)cc4)c3C=C1CC[C@@H]2CN(CC(O)c1ccccn1)S(=O)(=O)CC(F)(F)F (stereo partly drawn) [Example 142, 2,2,2-trifluoro-N-{[(4αR,5S)-1-(4-fluorophenyl)-4α-methyl-1,4,4α,5,6,7-hexahydrocyclopenta[f]indazol-5-yl]methyl}-N-(2-hydroxy-2-pyridin-2-ylethyl)ethanesulfonamide] |
